One series deals with T1, human topoisomerase I (Homo sapiens, UniProt P11387).
T1 construct: purchased Inspiralis
T1 sequence (P11387 1-765): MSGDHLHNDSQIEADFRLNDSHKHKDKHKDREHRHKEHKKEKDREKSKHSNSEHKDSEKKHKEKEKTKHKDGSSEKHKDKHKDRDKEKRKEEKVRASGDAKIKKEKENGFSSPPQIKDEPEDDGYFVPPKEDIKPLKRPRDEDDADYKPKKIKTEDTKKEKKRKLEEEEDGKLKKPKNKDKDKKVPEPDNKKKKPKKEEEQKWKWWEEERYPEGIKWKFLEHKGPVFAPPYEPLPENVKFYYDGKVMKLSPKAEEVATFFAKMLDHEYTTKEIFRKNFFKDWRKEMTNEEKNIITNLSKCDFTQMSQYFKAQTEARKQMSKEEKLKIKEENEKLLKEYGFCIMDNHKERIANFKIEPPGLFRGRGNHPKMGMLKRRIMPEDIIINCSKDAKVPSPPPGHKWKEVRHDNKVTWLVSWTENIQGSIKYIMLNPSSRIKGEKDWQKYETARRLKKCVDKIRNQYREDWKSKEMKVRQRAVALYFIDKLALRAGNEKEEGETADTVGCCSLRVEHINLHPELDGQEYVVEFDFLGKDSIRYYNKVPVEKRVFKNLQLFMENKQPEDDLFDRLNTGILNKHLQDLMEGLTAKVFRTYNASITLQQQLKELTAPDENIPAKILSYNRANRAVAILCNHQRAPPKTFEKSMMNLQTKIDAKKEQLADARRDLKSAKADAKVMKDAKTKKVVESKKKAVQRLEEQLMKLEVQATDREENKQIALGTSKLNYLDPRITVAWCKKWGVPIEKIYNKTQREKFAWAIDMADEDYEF
The series is described as follows: Topoisomerase I inhibition assay. The conditions noted are these: read-out: Top I inhibition (IC50). The series is classed as biochemical. As for the experimental part: Topoisomerase I inhibition assay was outsourced to Wuxi Apptech Co. Ltd. Topoisomerase I activity was measured using human topoisomerase I microplate assay kit (Inspiralis), according to the manufacturer’s instructions.

The next series has as its system MKN45. The series is described as follows: Cell viability assay, MKN45. Type of series: cell-based. The conditions noted are these: Homo sapiens, MKN-45, 144 h, read-out: IC50 cytotoxicity. As for the experimental part:
(§1) Cells were seeded into 96-well plates at 1500 cells/well for SK-BR-3, JIMT-1, and NCI-N87, 800 cells/well for HCC1954, 600 cells/well for AGS and MKN-45, 2500 cells/well for MDA-MB-468 and Capan-1, and 1000 cells/well for SNU-16. After overnight incubation, a serially diluted solution of compounds or ADCs was added. Cell viability was evaluated after 6 days using CellTiter-Glo reagent (Promega) according to the manufacturer’s instructions. Luminescence was measured by PHERAstar (BMG LABTECH).

Series [1] can be described thus: Toxicokinetics in cynomolgus monkeys. Type of series: in vivo. The conditions noted are these: for half-life: both sexes, cynomolgus monkey, in vivo, iv, 40 mg/kg. The method, then:
GLP toxicology and toxicokinetics studies were outsourced to Shanghai InnoStar Bio-tech Co., Ltd. Studies were approved by InnoStar’s Institutional Animal Care and Use Committee and carried out in compliance with ARRIVE guidelines. Cynomolgus monkeys were housed in stainless steel cages at the study institution. The temperature and relative humidity of the room were recorded twice a day with ranged from 18 to 26°C and 40–70%, respectively. Ventilation was constantly operated with ≥ 8 times of air changes per hour. […] Monkey maintenance feed was purchased from qualified supplier with microorganisms, heavy metals and pesticide residues tested. During the study, all animals had ad libitum access to feed and clean deionized water except during specific fasting. […] All animals were acclimated to temperature and relative humidity-controlled environment for few days before randomization. Detailed clinical observation was performed on all cynomolgus monkeys once a day during the acclimation period. All of the animal care staff were trained to maximal reduce the pain of animals. Special training such as animal handling, proper injection for treatment/anesthesia, and painless death were taught to the staff.
Clinical signs, body weight, food consumption, and clinical pathology were monitored twice a day. […] Humane endpoint criteria were observed twice a day during study to examine health and behavior. Animals were sacrificed in less than a day once reached endpoint criteria. There were no unexpected animal deaths during the studies with 16-weeks duration. All of the animals were euthanized by intravenous injection of combination of zoletil and xylazine at the end of study for targeted organ and tissue examinations to evaluate toxicity or when the following humane endpoints were reached: severe injury, severe respiratory depression, severe weight loss, persistent anorexia, significant pain or stress, progressive pain leading to weakness, and persistent or continuous twitching. Final disposal of each animal was recorded on the study records.

In a further series the test system is Capan-1. The series is described as follows: Cell viability assay, Capan-1. Type of series: cell-based. The conditions noted are these: Homo sapiens, CAPAN-1, 144 h, read-out: IC50 cytotoxicity. The method, then:
as §1

A short description of series [2]: Pharmacokinetics of payload in mice. Also on record: species or system C57BL/6 mice. To be noted: C57BL/6, mouse, in vivo, iv, 0.5 mg/kg. The method, then: All animal experiments at Shanghai Hengrui were approved by Shanghai Hengrui’s Institutional Animal Care and Use Committee. Studies were performed in accordance with ARRIVE guidelines. C57BL/6 mice (15–18 g body weight, n = 18) were purchased from Beijing Vital River Laboratory Animal Technology Co., Ltd and were held as described in details of mouse xenograft section. Compounds were administered intravenously at 0.5 mg/kg. Blood samples were collected at various time points after dosing. Mice were monitored daily for health condition and humane endpoint criteria. There were no unexpected animal deaths or humane endpoint criteria reached during the study. All of the animals were euthanized by using inhaled carbon dioxide at the end of study. The compound concentrations were determined by SCIEX Triple Quad 7500 LC-MS/MS System (SCIEX).

The test system of a further series is nine cancer cell lines. Description: Cell viability assay, panel of nine cancer cell lines. The series is classed as cell-based. The conditions noted are these: Homo sapiens; independent of HER2 expression levels; read-out: IC50 values across nine cancer cell lines. The method, then: as §1
The next series concerns MDA-MB-468. The series is described as follows: Cell viability assay, MDA-MB-468. The series is classed as cell-based. The conditions noted are these: Homo sapiens, MDA-MB-468, 144 h, read-out: IC50 cytotoxicity. As for the experimental part: as §1
The subject of a further series is NCI-N87. The series is described as follows: Cell viability assay, NCI-N87. Type of series: cell-based. The conditions noted are these: Homo sapiens, NCI-N87, 144 h, read-out: IC50 cytotoxicity. As for the experimental part:
as §1

Series [3] can be described thus: Lipophilicity assay (chromatographic LogD). The series is classed as physicochemical. To be noted: pH 7.4. As for the experimental part: Distribution coefficient (LogD, pH 7.4) was obtained by a high-throughput alternative method. Each compound was dissolved in DMSO at 10 mM. After centrifugation, the solution was measured by reversed-phase HPLC on a C18 column (50 × 4.6 mm, […] Gemini C18, Phenomenex) at pH 7.4, using fast gradient acetonitrile-aqueous buffer mobile phases. The lipophilicity was estimated from a calibration curve using six reference compounds by plotting their respectively measured retention time versus LogD in literature. The chromatographic LogD values were derived directly from the gradient retention time by using this calibration curve.

A short description of series [4]: Parallel artificial membrane permeability (PAMPA) assay. Type of series: in vitro ADME. As for the experimental part: PAMPA assay was outsourced to Wuxi Apptech Co. Ltd. Briefly, donor plate, acceptor plate and receiver plate formed a sandwich and 200 µL of 5.0 µM donor solutions were added. The concentrations of compounds in both plates were measured by a LC-MS/MS system after 30 minutes. The permeability coefficient (Peff, nm/s) values at pH 5 and 7.4 were calculated.
Background: The PAMPA barrier holds no transporters, so it reflects passive diffusion.

For a further series, the system named is HCC1954. The series is described as follows: Cell viability assay, HCC1954. The series is classed as cell-based. The conditions noted are these: Homo sapiens, HCC1954, 144 h, read-out: IC50 cytotoxicity. The method, then:
as §1

The subject of another series is AGS. The series is described as follows: Cell viability assay, AGS. The series is classed as cell-based. To be noted: Homo sapiens, 144 h, read-out: IC50 cytotoxicity. The method, then: as §1
For another series, the system named is JIMT-1. Description: Cell viability assay, JIMT-1. Type of series: cell-based. The conditions noted are these: Homo sapiens, JIMT-1, 144 h, read-out: IC50 cytotoxicity. The method, then: as §1
The subject of the next series is SK-BR-3. The series is described as follows: Cell viability assay, SK-BR-3. The series is classed as cell-based. To be noted: Homo sapiens, SK-BR-3, 144 h, read-out: IC50 cytotoxicity. As for the experimental part:
as §1

For the compound `CC[C@@]1(O)C(=O)OCc2c1cc1n(c2=O)Cc2c-1nc1cc(F)c(C)c3c1c2[C@@H](NC(=O)[C@H](O)C1CC1)CC3` [SHR169265], the IC50 on human topoisomerase I was 1340 nM; with MKN45, 0.3 ± 0.07 nM; with Capan-1 it was 0.38 ± 0.07 nM; in the series with nine cancer cell lines it was 0.3 to 2.32 nM; in the series on MDA-MB-468, 0.56 ± 0.09 nM; in the series on NCI-N87, 1 ± 0.07 nM. The IC50 came out at 0.55 ± 0.19 nM with HCC1954, 0.36 ± 0.11 nM with AGS, 2.32 ± 0.45 nM in the series with JIMT-1 and 0.58 ± 0.1 nM in the series with SK-BR-3. In addition, the RacAUCINF in series [1] (analyte after SHR-A1811 40 mg/kg i.v. every 3 weeks, Multiple vs single) came to 1.07. For the same compound, the half-life in series [1] (analyte after SHR-A1811 40 mg/kg i.v. every 3 weeks, Multiple) is 101 h; in series [1] (analyte after SHR-A1811 40 mg/kg i.v., Single), 107 h; in series [2] (mice, i.v. injection), 0.37 h. The compound also gave an AUC(0-t) in [2] of 113 ng·h/mL. In series [2], this compound registered a Cmax of 250 ng/mL. Moreover, in [2], the Vd came out at 1.81 L/kg. For the same compound, the clearance in [2] was 72.6 mL/min/kg. The compound also yielded a chromatographic logD in [3] of 1.89. The Papp at 30 min, 5 µM in [4] (pH 5) worked out at 13.8 ×10⁻⁶ cm/s; in series [4] (pH 7.4) it was 7.16 ×10⁻⁶ cm/s.

The IC50 is the concentration that inhibits the measured activity by half. Usually half-life stands for how long it takes for the measured level to halve. The AUC(0-t) is the area under the concentration-time curve up to a stated or last time point. The Cmax is the highest concentration seen after dosing. Usually Vd stands for the apparent volume that relates the amount in the body to the concentration in plasma or blood. The low end stands for confinement near the circulation, the high end for extensive tissue distribution. For orientation: clearance means the volume of plasma or blood freed of the substance per unit of time. Low values mean a low capacity for elimination, high ones a high capacity for elimination. For orientation: chromatographic logD means a lipophilicity value derived from retention on a column. By Papp is commonly meant a coefficient for how fast a substance crosses the barrier. High values mean ready permeation, low ones poor permeation.

These data come from publication PMC12200682 (PLOS One, 2025).
